Laboratory results reported in article PMC6370829, “NADP^+ is an endogenous PARP inhibitor in DNA damage response and tumor suppression” (Nature Communications, 2019).

What was measured:
[1] = target: T1, PARP10 (Homo sapiens, UniProt Q53GL7); assay: in vitro auto-MARylation, autoradiography; format: biochemical
T1 construct: GST-PARP10
T1 sequence (Q53GL7 1-1025): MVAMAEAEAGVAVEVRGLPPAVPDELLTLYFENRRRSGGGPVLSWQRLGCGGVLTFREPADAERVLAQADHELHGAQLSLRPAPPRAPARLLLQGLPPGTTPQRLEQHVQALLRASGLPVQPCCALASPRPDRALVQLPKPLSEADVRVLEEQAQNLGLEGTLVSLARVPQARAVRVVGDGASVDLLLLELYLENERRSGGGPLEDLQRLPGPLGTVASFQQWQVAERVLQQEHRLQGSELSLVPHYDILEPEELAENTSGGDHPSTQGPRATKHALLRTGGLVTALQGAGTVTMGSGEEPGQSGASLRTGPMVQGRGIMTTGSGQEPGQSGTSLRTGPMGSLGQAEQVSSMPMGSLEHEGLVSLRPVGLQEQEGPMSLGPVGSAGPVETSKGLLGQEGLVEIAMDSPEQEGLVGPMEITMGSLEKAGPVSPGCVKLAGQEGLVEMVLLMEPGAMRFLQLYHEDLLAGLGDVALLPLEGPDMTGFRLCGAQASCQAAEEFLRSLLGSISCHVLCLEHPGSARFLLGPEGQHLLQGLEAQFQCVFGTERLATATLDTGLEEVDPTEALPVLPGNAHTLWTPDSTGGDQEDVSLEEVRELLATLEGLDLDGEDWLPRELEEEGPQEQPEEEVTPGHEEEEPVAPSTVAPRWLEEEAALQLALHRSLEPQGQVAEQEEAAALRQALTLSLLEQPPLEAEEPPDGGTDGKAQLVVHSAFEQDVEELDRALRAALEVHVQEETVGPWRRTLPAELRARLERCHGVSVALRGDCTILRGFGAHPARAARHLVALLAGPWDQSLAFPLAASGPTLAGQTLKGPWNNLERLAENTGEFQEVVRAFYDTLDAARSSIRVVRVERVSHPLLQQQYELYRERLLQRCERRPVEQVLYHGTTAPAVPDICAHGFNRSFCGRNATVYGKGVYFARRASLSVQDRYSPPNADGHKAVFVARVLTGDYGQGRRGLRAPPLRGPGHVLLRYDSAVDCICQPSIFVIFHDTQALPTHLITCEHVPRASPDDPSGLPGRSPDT

[2] = target: T2, NADK (Homo sapiens, UniProt O95544); assay: recombinant enzyme reaction, product confirmed by mass spectrometry; format: biochemical
T2 construct: recombinant NADK
T2 sequence (O95544 1-446): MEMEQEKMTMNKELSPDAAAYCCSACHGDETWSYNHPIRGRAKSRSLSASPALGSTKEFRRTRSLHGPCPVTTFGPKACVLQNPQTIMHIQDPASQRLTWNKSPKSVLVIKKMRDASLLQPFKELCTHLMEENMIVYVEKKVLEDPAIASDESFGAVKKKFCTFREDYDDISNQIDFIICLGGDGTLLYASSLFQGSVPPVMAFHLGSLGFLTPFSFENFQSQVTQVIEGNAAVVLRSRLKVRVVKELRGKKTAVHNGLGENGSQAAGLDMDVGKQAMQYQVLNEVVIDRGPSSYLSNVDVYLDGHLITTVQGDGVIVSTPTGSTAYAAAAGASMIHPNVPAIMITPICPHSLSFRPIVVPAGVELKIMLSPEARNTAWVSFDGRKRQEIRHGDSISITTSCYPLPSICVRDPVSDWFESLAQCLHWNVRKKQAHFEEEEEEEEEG

[3] = target: T3, PARP1 (Homo sapiens, UniProt P09874); assay: in vitro auto-PARylation, western blot and […]NAD+ autoradiography; format: biochemical; parameters: HIS-PARP1
Target sequence in this assay (P09874 2-1014): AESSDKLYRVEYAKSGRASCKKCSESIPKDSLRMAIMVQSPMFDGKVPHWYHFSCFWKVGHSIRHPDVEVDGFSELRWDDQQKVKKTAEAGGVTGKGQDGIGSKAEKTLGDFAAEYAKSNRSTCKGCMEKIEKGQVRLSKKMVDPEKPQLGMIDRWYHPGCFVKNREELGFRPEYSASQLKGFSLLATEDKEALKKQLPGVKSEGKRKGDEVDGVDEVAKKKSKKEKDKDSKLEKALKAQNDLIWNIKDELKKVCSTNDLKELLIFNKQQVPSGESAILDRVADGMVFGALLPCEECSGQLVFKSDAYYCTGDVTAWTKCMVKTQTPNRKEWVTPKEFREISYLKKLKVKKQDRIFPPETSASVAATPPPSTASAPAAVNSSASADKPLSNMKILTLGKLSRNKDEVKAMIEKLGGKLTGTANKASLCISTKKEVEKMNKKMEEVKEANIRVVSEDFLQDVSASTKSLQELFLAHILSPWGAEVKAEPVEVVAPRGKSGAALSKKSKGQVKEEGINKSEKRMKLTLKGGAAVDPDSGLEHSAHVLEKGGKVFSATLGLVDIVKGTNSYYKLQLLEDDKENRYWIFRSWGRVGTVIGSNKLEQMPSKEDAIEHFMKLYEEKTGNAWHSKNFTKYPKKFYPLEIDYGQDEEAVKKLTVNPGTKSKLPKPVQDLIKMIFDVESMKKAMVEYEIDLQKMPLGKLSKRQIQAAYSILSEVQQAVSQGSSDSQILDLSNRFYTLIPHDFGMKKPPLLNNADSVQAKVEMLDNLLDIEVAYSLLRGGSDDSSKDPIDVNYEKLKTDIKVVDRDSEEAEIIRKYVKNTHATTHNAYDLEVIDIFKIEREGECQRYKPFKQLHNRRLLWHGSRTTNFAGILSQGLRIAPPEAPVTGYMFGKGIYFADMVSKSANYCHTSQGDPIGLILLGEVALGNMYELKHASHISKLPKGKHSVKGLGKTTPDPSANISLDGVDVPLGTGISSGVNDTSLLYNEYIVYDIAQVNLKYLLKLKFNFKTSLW

[4] = target: T4, PARP2 (Homo sapiens, UniProt Q9UGN5); assay: […]NADP+ binding to immobilized protein (TLC); also inhibition of auto-PARylation
T4 construct: HIS-PARP2

[5] = target: T1, PARP10; assay: […]NADP+ binding to immobilized protein (TLC); also inhibition of auto-MARylation
[6] = target: T3, PARP1; assay: ITC; also […]NADP+ pull-down binding and inhibition of auto-PARylation; parameters: catalytic domain (GST-PARP1 CAT, aa. 662–1014) for ITC
Target sequence in this assay (P09874 662-1014): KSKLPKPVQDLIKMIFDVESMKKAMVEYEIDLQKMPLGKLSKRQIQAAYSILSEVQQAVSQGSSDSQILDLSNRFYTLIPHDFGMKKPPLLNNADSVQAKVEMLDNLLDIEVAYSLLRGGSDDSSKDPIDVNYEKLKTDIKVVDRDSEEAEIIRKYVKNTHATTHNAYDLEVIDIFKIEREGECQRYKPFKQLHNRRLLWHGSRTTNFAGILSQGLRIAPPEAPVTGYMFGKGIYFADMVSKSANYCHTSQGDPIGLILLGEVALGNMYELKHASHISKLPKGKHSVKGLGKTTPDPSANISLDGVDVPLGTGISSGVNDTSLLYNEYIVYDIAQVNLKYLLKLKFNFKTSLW

T4 sequence (Q9UGN5 whole entry): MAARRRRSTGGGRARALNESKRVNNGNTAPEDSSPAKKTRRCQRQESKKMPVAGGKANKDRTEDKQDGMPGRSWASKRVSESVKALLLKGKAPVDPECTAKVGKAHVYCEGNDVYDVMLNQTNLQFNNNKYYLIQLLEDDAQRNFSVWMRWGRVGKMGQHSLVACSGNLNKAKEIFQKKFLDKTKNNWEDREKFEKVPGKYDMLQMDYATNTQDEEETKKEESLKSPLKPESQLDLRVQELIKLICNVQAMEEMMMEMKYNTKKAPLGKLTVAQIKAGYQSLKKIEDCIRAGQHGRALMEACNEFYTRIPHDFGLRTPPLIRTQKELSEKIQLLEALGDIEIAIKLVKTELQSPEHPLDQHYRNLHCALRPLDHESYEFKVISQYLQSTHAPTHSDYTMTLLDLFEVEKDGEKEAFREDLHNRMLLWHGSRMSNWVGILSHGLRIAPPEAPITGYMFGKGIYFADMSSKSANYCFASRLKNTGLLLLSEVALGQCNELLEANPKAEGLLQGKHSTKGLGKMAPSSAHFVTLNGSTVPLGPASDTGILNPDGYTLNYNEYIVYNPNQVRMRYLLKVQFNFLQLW

SMILES | in vitro auto-MARylation, autoradiography [1] | recombinant enzyme reaction, product confirmed by mass spectrometry [2] | in vitro auto-PARylation, western blot and [32P]NAD+ autoradiography [3] | [32P]NADP+ binding to immobilized protein (TLC); also inhibition of auto-PARylat [4] | [32P]NADP+ binding to immobilized protein (TLC); also inhibition of auto-MARylat [5] | Kd [6] [µM]
NC(=O)c1ccc[n+]([C@@H]2O[C@H](COP(=O)([O-])OP(=O)(O)OC[C@H]3O[C@@H](n4cnc5c(N)ncnc54)[C@H](O)[C@@H]3O)[C@@H](O)[C@H]2O)c1 [NAD^+] | Auto-MARylation of PARP10 was examined by autoradiography | recombinant NADK protein that can transfer phosphate moiety from ATP to NAD^+ to synthesize NADP^+ | with NAD^+, PARP1 quickly synthesized PAR chains and autoPARylated itself | – | – | –
NC(=O)c1ccc[n+]([C@@H]2O[C@H](COP(=O)(O)OP(=O)(O)OC[C@H]3O[C@@H](n4cnc5c(N)ncnc54)[C@H](OP(=O)(O)O)[C@@H]3O)[C@@H](O)[C@H]2O)c1 [NADP^+] | – | Formation of NADP^+ by our recombinant protein was confirmed by mass spectrometry | – | found that PARP1, PARP2, and PARP10 indeed were able to bind NADP^+ (Fig. 3a) | found that PARP1, PARP2, and PARP10 indeed were able to bind NADP^+ (Fig. 3a) | ~39
